Measurements taken from PubChem BioAssay (NCI).
Several values for one entry are separate records, joined by “and”; a condition that tells them apart may be missing. Equal values may be shown once.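 96-well plates; 48 h exposure; 5 concentrations. Endpoints by linear interpolation between flanking doses. Not reached: highest tested concentration assigned. The concentration for 50% growth inhibition is given as GI50. TGI marks complete inhibition of growth.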

How the values were obtained:
Test in all cases: NCI anticancer screen, dose series, 48 h
[1] = system: SW-620 colon
[2] = system: A498 renal
[3] = system: SK-MEL-2 melanoma
[4] = system: PC-3 prostate
[5] = system: HCT-116 colon
[6] = system: ACHN renal
[7] = system: HCC-2998 colon
[8] = system: MCF7 breast
[9] = system: SR leukemia
[10] = system: CAKI-1 renal
[11] = system: 786-0 renal
[12] = system: SF-539 CNS
[13] = system: M14 melanoma
[14] = system: SF-268 CNS
[15] = system: OVCAR-8 ovarian
[16] = system: A549 NSCLC
[17] = system: CCRF-CEM leukemia
[18] = system: HCT-15 colon
[19] = system: SK-MEL-28 melanoma
[20] = system: UO-31 renal
[21] = system: NCI/ADR-RES ovarian
[22] = system: COLO 205 colon
[23] = system: HOP-92 NSCLC
[24] = system: RPMI-8226 leukemia
[25] = system: SNB-75 CNS
[26] = system: OVCAR-4 ovarian
[27] = system: MDA-MB-231 breast
[28] = system: HL-60(TB) leukemia
[29] = system: T-47D breast
[30] = system: MDA-MB-435
[31] = system: IGROV1 ovarian
[32] = system: NCI-H23 lung
[33] = system: OVCAR-5 ovarian
[34] = system: SF-295 CNS
[35] = system: K-562 leukemia
[36] = system: HOP-62 NSCLC
[37] = system: EKVX NSCLC
[38] = system: DU-145 prostate
[39] = system: NCI-H460 lung
[40] = system: SK-OV-3 ovarian
[41] = system: LOX IMVI melanoma
[42] = system: HS 578T breast
[43] = system: SNB-19 CNS
[44] = system: SK-MEL-5 melanoma
[45] = system: OVCAR-3 ovarian
[46] = system: U251 CNS
[47] = system: MOLT-4 leukemia
[48] = system: HT29 colon
[49] = system: KM12 colon
[50] = system: NCI-H522 lung

## Cc1cc2nc3ccc(N=Nc4ccc(N(C)C)cc4)cc3n(-c3ccccc3)c-2cc1=N
[1]
  GI50: 22.1 nM
  TGI: 120 nM
[2]
  GI50: 30.8 nM
  TGI: 1090 nM
[3]
  GI50: 58 nM
  TGI: 317 nM
[4]
  GI50: 14.3 nM
  TGI: 183 nM
[5]
  GI50: 17.7 nM
  TGI: 116 nM
[6]
  GI50: 23.3 nM and 210 nM
[7]
  GI50: 43.1 nM
  TGI: 1600 nM
[8]
  GI50: 1.99 nM
  TGI: 14.3 nM
[9]
  GI50: 20.8 nM
  TGI: 394 nM
[10]
  GI50: 36.9 nM
  TGI: 1070 nM
[11]
  GI50: 77.8 nM
  TGI: 505 nM
[12]
  GI50: 22.6 nM
  TGI: 153 nM
[13]
  GI50: 65.7 nM
  TGI: 239 nM
[14]
  GI50: 33.2 nM
  TGI: 260 nM
[15]
  GI50: 23.2 nM and 41.4 nM
[16]
  GI50: 8.94 nM
  TGI: 264 nM
[17]
  GI50: 8.58 nM and 16.2 nM
  TGI: 203 nM and 141 nM
[18]
  GI50: 27.3 nM and 177 nM
  TGI: 259 nM and 1310 nM
[19]
  GI50: 57.3 nM
  TGI: 241 nM
[20]
  GI50: 33.3 nM
  TGI: 820 nM
[21]
  GI50: 279 nM
  TGI: 3.13 µM
[22]
  GI50: 3.43 nM
  TGI: 21.6 nM
[23]
  GI50: 32.5 nM
  TGI: 386 nM
[24]
  GI50: 2.54 nM
  TGI: 20 nM
[25]
  GI50: 50 nM
  TGI: 1250 nM
[26]
  GI50: 11.6 nM and 41.5 nM
  TGI: 120 nM and 802 nM
[27]
  GI50: 74 nM
  TGI: 466 nM
[28]
  GI50: 3.34 nM and 11.9 nM
[29]
  GI50: 2.96 nM
  TGI: 70.6 nM
[30]
  GI50: 40.2 nM
  TGI: 165 nM
[31]
  GI50: 22.1 nM and 32.8 nM
[32]
  GI50: 25.3 nM
  TGI: 418 nM
[33]
  GI50: 48.6 nM
  TGI: 1550 nM
[34]
  GI50: 15.4 nM and 31.4 nM
[35]
  GI50: 6.86 nM
[36]
  GI50: 40.6 nM
  TGI: 1750 nM
[37]
  GI50: 23 nM
  TGI: 212 nM
[38]
  GI50: 20.8 nM
  TGI: 123 nM
[39]
  GI50: 14.6 nM
  TGI: 52.7 nM
[40]
  GI50: 30.5 nM
  TGI: 187 nM
[41]
  GI50: 25.9 nM
  TGI: 117 nM
[42]
  GI50: 16.8 nM
  TGI: 81.6 nM
[43]
  GI50: 21.2 nM and 73.1 nM
  TGI: 1080 nM and 1610 nM
[44]
  GI50: 23.5 nM
  TGI: 143 nM
[45]
  GI50: 12.1 nM
  TGI: 39 nM
[46]
  GI50: 18.3 nM
  TGI: 114 nM
[47]
  GI50: 14.6 nM
  TGI: 1920 nM
[48]
  GI50: 49.7 nM
  TGI: 1150 nM
[49]
  GI50: 17.4 nM
  TGI: 116 nM
[50]
  GI50: 19.9 nM and 147 nM
